ChEMBL document CHEMBL6182927, “Heparan Sulfate-Based Neoproteoglycan for Targeted Lysosomal Degradation of Amyloid-β” (J Med Chem, 2025)
The source made the active and inactive calls. The rule behind the calls is not given here.

What was measured:
[1] = tested on: MDA-MB-468; assay: Protection against amyloid beta-induced cytotoxicity in human MDA-MB-468 cells at 0.5 uM by MTT assay; assay type: functional, cell-based
[2] = tested on: MDA-MB-468; assay: Induction of amyloid beta (1 to 42) degradation in lysosome of human MDA-MB-468 cells assessed as decrease in fluorescence signal at 1 uM incubated for 48 to 72 hrs by FITC based flow cytometry analysis; assay type: subcellular; details: time 48-72 hrs
[3] = target: T1, Amyloid-beta precursor protein (Homo sapiens, UniProt P05067); assay: Binding affinity to amyloid beta (1 to 42) (unknown origin) assessed as dissociation constant by SPR analysis
[4] = target: T1, Amyloid-beta precursor protein; assay: Binding affinity to amyloid beta (1 to 42) (unknown origin) assessed as binding constant K(on) by SPR analysis
[5] = target: T1, Amyloid-beta precursor protein; assay: Binding affinity to amyloid beta (1 to 42) (unknown origin) assessed as binding constant K(off) by SPR analysis

T1 sequence (P05067 whole entry): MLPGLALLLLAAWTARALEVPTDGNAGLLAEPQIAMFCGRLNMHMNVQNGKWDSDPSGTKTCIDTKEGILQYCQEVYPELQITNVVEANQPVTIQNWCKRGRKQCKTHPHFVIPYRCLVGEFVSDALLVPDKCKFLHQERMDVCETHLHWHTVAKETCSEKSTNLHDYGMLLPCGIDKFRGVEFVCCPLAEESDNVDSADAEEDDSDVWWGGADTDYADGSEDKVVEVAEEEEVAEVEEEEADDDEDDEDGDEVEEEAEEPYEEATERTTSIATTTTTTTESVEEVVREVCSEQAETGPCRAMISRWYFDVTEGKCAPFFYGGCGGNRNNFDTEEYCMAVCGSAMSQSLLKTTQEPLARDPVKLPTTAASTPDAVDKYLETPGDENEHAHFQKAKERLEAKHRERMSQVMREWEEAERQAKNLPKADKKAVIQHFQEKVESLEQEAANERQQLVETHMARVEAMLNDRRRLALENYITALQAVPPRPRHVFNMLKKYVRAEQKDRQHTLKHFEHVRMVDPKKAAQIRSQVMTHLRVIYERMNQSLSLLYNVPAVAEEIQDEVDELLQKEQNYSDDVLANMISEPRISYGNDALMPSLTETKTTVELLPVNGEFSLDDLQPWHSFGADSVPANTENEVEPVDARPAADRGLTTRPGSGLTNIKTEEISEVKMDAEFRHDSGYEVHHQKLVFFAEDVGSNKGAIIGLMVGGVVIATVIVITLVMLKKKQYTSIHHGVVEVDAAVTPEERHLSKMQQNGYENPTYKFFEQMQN

| Activity [2] | Kd [3] [nM] | K [4] | K [5] | Structure (SMILES) | Activity [1] |
| --- | --- | --- | --- | --- | --- |
| Active |  |  |  | CC(C)CCC[C@@H](C)[C@H]1CC[C@H]2[C@@H]3CC=C4C[C@@H](OCCC(=O)NCCOCCOCCNC(=O)CCC(=O)N5Cc6ccccc6-c6c(nnn6CCC[C@H](NC(=O)[C@H](CCCCNC(=O)CCn6nnc7c6-c6ccccc6CN(C(=O)CCC(=O)NCCCO[C@@H]6O[C@@H](C(=O)O)[C@@H](O[C@H]8O[C@H](COS(=O)(=O)O)[C@@H](O[C@@H]9O[C@@H](C(=O)O)[C@@H](O[C@H]%10O[C@H](COS(=O)(=O)O)[C@@H](O[C@@H]%11O[C@@H](C(=O)O)[C@@H](O[C@H]%12O[C@H](COS(=O)(=O)O)[C@@H](O)[C@H](O)[C@H]%12NS(=O)(=O)O)[C@H](O)[C@H]%11OS(=O)(=O)O)[C@H](O)[C@H]%10NS(=O)(=O)O)[C@H](O)[C@H]9OS(=O)(=O)O)[C@H](O)[C@H]8NS(=O)(=O)O)[C@H](O)[C@H]6OS(=O)(=O)O)c6ccccc6-7)NC(=O)[C@H](CCCCNC(=O)CCn6nnc7c6-c6ccccc6CN(C(=O)CCC(=O)NCCCO[C@@H]6O[C@@H](C(=O)O)[C@@H](O[C@H]8O[C@H](COS(=O)(=O)O)[C@@H](O[C@@H]9O[C@@H](C(=O)O)[C@@H](O[C@H]%10O[C@H](COS(=O)(=O)O)[C@@H](O[C@@H]%11O[C@@H](C(=O)O)[C@@H](O[C@H]%12O[C@H](COS(=O)(=O)O)[C@@H](O)[C@H](O)[C@H]%12NS(=O)(=O)O)[C@H](O)[C@H]%11OS(=O)(=O)O)[C@H](O)[C@H]%10NS(=O)(=O)O)[C@H](O)[C@H]9OS(=O)(=O)O)[C@H](O)[C@H]8NS(=O)(=O)O)[C@H](O)[C@H]6OS(=O)(=O)O)c6ccccc6-7)NC(=O)[C@H](CCCCNC(=O)CCn6nnc7c6-c6ccccc6CN(C(=O)CCC(=O)NCCCO[C@@H]6O[C@@H](C(=O)O)[C@@H](O[C@H]8O[C@H](COS(=O)(=O)O)[C@@H](O[C@@H]9O[C@@H](C(=O)O)[C@@H](O[C@H]%10O[C@H](COS(=O)(=O)O)[C@@H](O[C@@H]%11O[C@@H](C(=O)O)[C@@H](O[C@H]%12O[C@H](COS(=O)(=O)O)[C@@H](O)[C@H](O)[C@H]%12NS(=O)(=O)O)[C@H](O)[C@H]%11OS(=O)(=O)O)[C@H](O)[C@H]%10NS(=O)(=O)O)[C@H](O)[C@H]9OS(=O)(=O)O)[C@H](O)[C@H]8NS(=O)(=O)O)[C@H](O)[C@H]6OS(=O)(=O)O)c6ccccc6-7)NC(=O)[C@H](CCCCNC(=O)CCn6nnc7c6-c6ccccc6CN(C(=O)CCC(=O)NCCCO[C@@H]6O[C@@H](C(=O)O)[C@@H](O[C@H]8O[C@H](COS(=O)(=O)O)[C@@H](O[C@@H]9O[C@@H](C(=O)O)[C@@H](O[C@H]%10O[C@H](COS(=O)(=O)O)[C@@H](O[C@@H]%11O[C@@H](C(=O)O)[C@@H](O[C@H]%12O[C@H](COS(=O)(=O)O)[C@@H](O)[C@H](O)[C@H]%12NS(=O)(=O)O)[C@H](O)[C@H]%11OS(=O)(=O)O)[C@H](O)[C@H]%10NS(=O)(=O)O)[C@H](O)[C@H]9OS(=O)(=O)O)[C@H](O)[C@H]8NS(=O)(=O)O)[C@H](O)[C@H]6OS(=O)(=O)O)c6ccccc6-7)NC(=O)[C@H](CCCCNC(=O)CCn6nnc7c6-c6ccccc6CN(C(=O)CCC(=O)NCCCO[C@@H]6O[C@@H](C(=O)O)[C@@H](O[C@H]8O[C@H](COS(=O)(=O)O)[C@@H](O[C@@H]9O[C@@H](C(=O)O)[C@@H](O[C@H]%10O[C@H](COS(=O)(=O)O)[C@@H](O[C@@H]%11O[C@@H](C(=O)O)[C@@H](O[C@H]%12O[C@H](COS(=O)(=O)O)[C@@H](O)[C@H](O)[C@H]%12NS(=O)(=O)O)[C@H](O)[C@H]%11OS(=O)(=O)O)[C@H](O)[C@H]%10NS(=O)(=O)O)[C@H](O)[C@H]9OS(=O)(=O)O)[C@H](O)[C@H]8NS(=O)(=O)O)[C@H](O)[C@H]6OS(=O)(=O)O)c6ccccc6-7)NC(=O)[C@H](C)NC(=O)CCCCC[N+]6=C(/C=C/C=C/C=C7\N(C)c8ccccc8C7(C)C)C(C)(C)c7ccccc76)C(N)=O)-c6ccccc65)CC[C@]4(C)[C@H]3CC[C@]12C | Active |
|  | 90.2 | 2.45 10^5/Ms | 2.21 10^-2/s | NCCOCCO[C@@H]1O[C@@H](COS(=O)(=O)O)[C@@H](O[C@@H]2O[C@@H](COS(=O)(=O)O)[C@@H](O[C@@H]3O[C@@H](COS(=O)(=O)O)[C@@H](O[C@@H]4O[C@@H](COS(=O)(=O)O)[C@@H](OS(=O)(=O)O)[C@H](O)[C@H]4OS(=O)(=O)O)[C@H](O)[C@H]3OS(=O)(=O)O)[C@H](O)[C@H]2OS(=O)(=O)O)[C@H](O)[C@H]1OS(=O)(=O)O |  |
|  | 90.3 | 2.47 10^5/Ms | 2.23 10^-2/s | NCCCO[C@@H]1O[C@@H](C(=O)O)[C@@H](O[C@H]2O[C@H](COS(=O)(=O)O)[C@@H](O[C@@H]3O[C@@H](C(=O)O)[C@@H](O[C@H]4O[C@H](COS(=O)(=O)O)[C@@H](O[C@@H]5O[C@@H](C(=O)O)[C@@H](O[C@H]6O[C@H](COS(=O)(=O)O)[C@@H](O)[C@H](O)[C@H]6NS(=O)(=O)O)[C@H](O)[C@H]5OS(=O)(=O)O)[C@H](O)[C@H]4NS(=O)(=O)O)[C@H](O)[C@H]3OS(=O)(=O)O)[C@H](O)[C@H]2NS(=O)(=O)O)[C@H](O)[C@H]1OS(=O)(=O)O |  |
